Test results as given in PubChem BioAssay AID248 (DTP/NCI, 2004).
Values joined by “and” are separate entries in the source; they are usually repeats but may differ in a detail not shown here. Identical values can stand only once. Toxic doses and inconclusive results are not listed. Rule as the data show it: active = T/C of 150% or more; inactive = T/C below 125%.

Test system: L1210 leukemia ip in BDF1 mice, survival T/C
Test: NCI In Vivo Anticancer Drug Screen. Data for tumor model L1210 Leukemia (intraperitoneal) in B6D2F1 (BDF1) mice
Conditions: endpoint: mean survival time, higher = longer survival
In short: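 Read-out is survival time, reported as the treated-group measurement over the vehicle-control measurement.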

[1] = dose: 100.0 mg/kg/injection, schedule: Q01DX009 (ip), vehicle: Klucel (hydroxypropylcellulose) (HPC)
[2] = dose: 100.0 mg/kg/injection, schedule: Q04DX003 (ip), vehicle: Klucel (hydroxypropylcellulose) (HPC)
[3] = dose: 200.0 mg/kg/injection, schedule: Q01DX009 (ip), vehicle: Klucel (hydroxypropylcellulose) (HPC)
[4] = dose: 200.0 mg/kg/injection, schedule: Q04DX003 (ip), vehicle: Klucel (hydroxypropylcellulose) (HPC)
[5] = dose: 400.0 mg/kg/injection, schedule: Q01DX009 (ip), vehicle: Klucel (hydroxypropylcellulose) (HPC)
[6] = dose: 400.0 mg/kg/injection, schedule: Q04DX003 (ip), vehicle: Klucel (hydroxypropylcellulose) (HPC)
[7] = dose: 200.0 mg/kg/injection, schedule: Q04DX002 (ip), vehicle: Klucel (hydroxypropylcellulose) (HPC)
[8] = dose: 400.0 mg/kg/injection, schedule: Q04DX002 (ip), vehicle: Klucel (hydroxypropylcellulose) (HPC)
[9] = dose: 100.0 mg/kg/injection, schedule: Q04DX003 (ip), vehicle: saline with Tween-80
[10] = dose: 100.0 mg/kg/injection, schedule: Q01DX001 (ip), vehicle: Klucel (hydroxypropylcellulose) (HPC)
[11] = dose: 200.0 mg/kg/injection, schedule: Q04DX003 (ip), vehicle: saline with Tween-80
[12] = dose: 25.0 mg/kg/injection, schedule: Q01DX009 (ip), vehicle: saline with Tween-80
[13] = dose: 50.0 mg/kg/injection, schedule: Q01DX001 (ip), vehicle: saline
[14] = dose: 100.0 mg/kg/injection, schedule: Q01DX001 (ip), vehicle: saline
[15] = dose: 200.0 mg/kg/injection, schedule: Q01DX001 (ip), vehicle: saline
[16] = dose: 400.0 mg/kg/injection, schedule: Q01DX001 (ip), vehicle: saline
[17] = dose: 50.0 mg/kg/injection, schedule: Q01DX009 (ip), vehicle: saline with Tween-80

Measured: T/C

CCN(CC)C(=S)SSC(=S)N(CC)CC
inactive: dose: 25.0 mg/kg/injection, schedule: Q01DX009 (ip), vehicle: Klucel (hydroxypropylcellulose) (HPC) 100 % of control | dose: 25.0 mg/kg/injection, schedule: Q04DX003 (ip), vehicle: Klucel (hydroxypropylcellulose) (HPC) 93 % of control | dose: 50.0 mg/kg/injection, schedule: Q01DX009 (ip), vehicle: Klucel (hydroxypropylcellulose) (HPC) 100 % of control | dose: 50.0 mg/kg/injection, schedule: Q04DX003 (ip), vehicle: Klucel (hydroxypropylcellulose) (HPC) 93 % of control | [1] 91 % of control | [2] 96 % of control and 98 % of control | [3] 98 % of control and 101 % of control | [4] 88 % of control and 91 % of control | [5] 96 % of control and 100 % of control | [6] 93 % of control and 96 % of control

Cc1n[n+]([O-])c(C)cc1Cl
inactive: dose: 100.0 mg/kg/injection, schedule: Q04DX002 (ip), vehicle: Klucel (hydroxypropylcellulose) (HPC) 104 % of control | [7] 104 % of control | [8] 119 % of control

COc1ccc(C(=O)CBr)cc1OC
inactive: dose: 100.0 mg/kg/injection, schedule: Q01DX001 (ip), vehicle: carboxymethylcellulose (CMC) 96 % of control

Clc1ccc([S][Pb]([c]2ccccc2)([c]2ccccc2)[c]2ccccc2)cc1
inactive: dose: 100.0 mg/kg/injection, schedule: Q04DX002 (ip), vehicle: gum acacia 88 % of control | dose: 200.0 mg/kg/injection, schedule: Q04DX002 (ip), vehicle: gum acacia 91 % of control

CCCCCCOCCN1CCN(CCCN2c3ccccc3Sc3ccc(C(F)(F)F)cc32)CC1
inactive: dose: 12.5 mg/kg/injection, schedule: Q04DX003 (ip), vehicle: saline with Tween-80 106 % of control | dose: 25.0 mg/kg/injection, schedule: Q04DX003 (ip), vehicle: saline with Tween-80 101 % of control | dose: 50.0 mg/kg/injection, schedule: Q04DX003 (ip), vehicle: saline with Tween-80 101 % of control | [9] 93 % of control

O=C(Cc1ccccc1)Nc1ccc(Nc2ccccc2)cc1
inactive: [7] 100 % of control | [8] 95 % of control

CCCCNC(=O)Nc1ccc(CC)cc1
inactive: [1] 98 % of control | [2] 97 % of control | [3] 102 % of control | [4] 102 % of control | [5] 96 % of control | [6] 100 % of control

O=C(O)C1=CC2C3C=C(C(=O)O)C(C3)C2C1 (stereo unspecified)
inactive: [10] 96 % of control | dose: 200.0 mg/kg/injection, schedule: Q01DX001 (ip), vehicle: Klucel (hydroxypropylcellulose) (HPC) 96 % of control | dose: 400.0 mg/kg/injection, schedule: Q01DX001 (ip), vehicle: Klucel (hydroxypropylcellulose) (HPC) 97 % of control

CCC(=O)Nc1ccc(Cl)c(Cl)c1
inactive: [9] 95 % of control | [11] 93 % of control | dose: 400.0 mg/kg/injection, schedule: Q04DX003 (ip), vehicle: saline with Tween-80 92 % of control

CCOC(=O)CS(=O)c1c([N+](=O)[O-])ncn1C (stereo unspecified)
inactive: dose: 6.25 mg/kg/injection, schedule: Q01DX009 (ip), vehicle: saline with Tween-80 97 % of control | dose: 12.5 mg/kg/injection, schedule: Q01DX009 (ip), vehicle: saline with Tween-80 94 % of control | [12] 103 % of control

Nc1nc(N)c(NC/C=C\c2ccc([N+](=O)[O-])cc2)c(-c2ccccc2)n1
inactive: [13] 91 % of control | [14] 97 % of control | [15] 103 % of control | [16] 109 % of control

CCOC(=N)Cc1cc(OC)c(OC)c(OC)c1
inactive: dose: 100.0 mg/kg/injection, schedule: Q04DX003 (ip), vehicle: saline sonified 100 % of control | dose: 200.0 mg/kg/injection, schedule: Q04DX003 (ip), vehicle: saline sonified 98 % of control | dose: 400.0 mg/kg/injection, schedule: Q04DX003 (ip), vehicle: saline sonified 102 % of control

C[C@]1(O)CC[C@H]2[C@@H]3CC[C@@H]4CC(=O)CC[C@]4(C)[C@@]3(F)C(=O)C[C@@]21C
inactive: dose: 50.0 mg/kg/injection, schedule: Q01DX Z (sc), vehicle: steriod suspending solution 96 % of control | dose: 250.0 mg/kg/injection, schedule: Q01DX Z (sc), vehicle: steriod suspending solution 101 % of control | dose: 500.0 mg/kg/injection, schedule: Q01DX Z (sc), vehicle: steriod suspending solution 98 % of control

S=c1[nH]c2ccccc2s1
inactive: [12] 94 % of control | [17] 105 % of control | [1] 88 % of control | dose: 100.0 mg/kg/injection, schedule: Q01DX009 (ip), vehicle: saline with Tween-80 109 % of control | dose: 100.0 mg/kg/injection, schedule: Q04DX002 (ip), vehicle: saline 115 % of control | dose: 100.0 mg/kg/injection, schedule: Q04DX003 (ip), vehicle: other 96 % of control | [9] 96 % of control | [3] 100 % of control | dose: 200.0 mg/kg/injection, schedule: Q04DX002 (ip), vehicle: saline 112 % of control | dose: 200.0 mg/kg/injection, schedule: Q04DX003 (ip), vehicle: other 96 % of control | [11] 100 % of control | [5] 95 % of control | dose: 400.0 mg/kg/injection, schedule: Q04DX003 (ip), vehicle: other 101 % of control

CCC(=O)c1ccc(OC(C)=O)c(OC(C)=O)c1
inactive: [13] 101 % of control | [14] 101 % of control | dose: 100.0 mg/kg/injection, schedule: Q04DX003 (ip), vehicle: saline 100 % of control | [15] 109 % of control | dose: 200.0 mg/kg/injection, schedule: Q04DX003 (ip), vehicle: saline 97 % of control | [16] 97 % of control | dose: 400.0 mg/kg/injection, schedule: Q04DX003 (ip), vehicle: saline 100 % of control

COc1cccc(/C=N/NC(=O)C[n+]2ccccc2)c1OC
inactive: [12] 98 % of control | [17] 106 % of control | [9] 113 % of control

CCCc1c(OCC)c(OC)c2c3c(c(-c4c(C)cc5c(CCC)c(OCC)c(OC)c6c5c4OC6OC)c(C)cc13)OC2OC (stereo unspecified)
inactive: [1] 94 % of control | [3] 98 % of control | [5] 98 % of control

COC(=O)C1C2CC3C(OC(=O)C31C)C2I (stereo unspecified)
inactive: [14] 90 % of control | [15] 107 % of control | [16] 110 % of control

C=CCN(CC=C)CCSC(=S)NCCOC
inactive: dose: 100.0 mg/kg/injection, schedule: Q01DX001 (ip), vehicle: acetone 100 % of control | dose: 100.0 mg/kg/injection, schedule: Q04DX003 (ip), vehicle: acetone 107 % of control | dose: 200.0 mg/kg/injection, schedule: Q01DX001 (ip), vehicle: acetone 97 % of control | dose: 200.0 mg/kg/injection, schedule: Q04DX003 (ip), vehicle: acetone 106 % of control | dose: 400.0 mg/kg/injection, schedule: Q01DX001 (ip), vehicle: acetone 90 % of control | dose: 400.0 mg/kg/injection, schedule: Q04DX003 (ip), vehicle: acetone 107 % of control

CC1(C)Cc2cccc(C(O)(CCN3CCCCC3)c3ccccc3)c2O1 (stereo unspecified)
inactive: dose: 20.0 mg/kg/injection, schedule: Q01DX001 (ip), vehicle: Klucel (hydroxypropylcellulose) (HPC) 96 % of control | dose: 40.0 mg/kg/injection, schedule: Q01DX001 (ip), vehicle: Klucel (hydroxypropylcellulose) (HPC) 98 % of control | dose: 80.0 mg/kg/injection, schedule: Q01DX001 (ip), vehicle: Klucel (hydroxypropylcellulose) (HPC) 92 % of control | [10] 91 % of control
